Data from patent US20250171461A1, “STIMULATOR OF INTERFERON GENES (STING) MODULATORS, AND COMPOSITIONS AND METHODS THEREOF” (Geode Therapeutics Inc., priority 2022, published 2025).

Each molecule was assayed against T1, human HAQ STING isoform (hSTING HAQ) (Homo sapiens, UniProt Q86WV6, G230A/H232R/R293Q/R71H) (assay: IFN-β mRNA level in THP1 cells (qPCR, STING agonist cellular activity)). Conditions: compound at 3.6 μM, 2 hrs, IFNβ expression normalized against GAPDH by the 2^-ΔΔCT method, DMSO = 1.0.
T1 construct: THP1 cells express the naturally occurring human HAQ STING isoform (hSTING HAQ); host or cells: THP1
T1 sequence (Q86WV6 whole entry R71H/G230A/H232R/R293Q, canonical isoform): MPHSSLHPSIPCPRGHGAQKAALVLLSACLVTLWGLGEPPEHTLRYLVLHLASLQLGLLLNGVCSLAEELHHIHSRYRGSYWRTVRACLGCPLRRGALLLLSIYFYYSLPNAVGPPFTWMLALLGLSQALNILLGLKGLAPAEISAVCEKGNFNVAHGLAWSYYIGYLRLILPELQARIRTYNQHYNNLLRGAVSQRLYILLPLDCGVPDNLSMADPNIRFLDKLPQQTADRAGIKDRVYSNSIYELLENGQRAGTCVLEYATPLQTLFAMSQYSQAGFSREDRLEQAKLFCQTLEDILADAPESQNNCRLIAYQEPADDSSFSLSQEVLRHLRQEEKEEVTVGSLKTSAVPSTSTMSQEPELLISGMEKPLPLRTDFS
Assay type: cell-based
Description: Cellular activity of STING agonists was determined by mRNA levels of IFN-β in THP1 (Otwo Biotech HTX1621) cell line. THP1 cells express the naturally occurring human HAQ STING isoform (hSTING HAQ), which responses to the activation of STING agonists.
THP1 cells were seeded into Falcon 12-well cell Culture Plate (Corning #353043) at 9×10^5 cells per well, in 1 ml complete culture medium (RPMI-1640, GIBCO #C1187500BT) containing 10% heat inactivated FBS (GIBCO #10099141C), 1% Pen-Strep (HyClone SV30010) and incubated at 37° ΔC, 5% CO2 overnight. On day 2, compound (final concentration at 3.6 μM) or DMSO (0.1%, Sigma Aldrich #8418) was added to THP1 cells and further incubated for 2 hrs min at 37° ΔC, 5% CO2. Cells were then collected for RNA extraction.
Total RNA was extracted with TRIzol reagent (Invitrogen #15596026) and […] was used to synthesize first-strand cDNA with Maxima First Strand cDNA Synthesis Kit (TAKARA #RR036A). Quantitative PCR was performed with Maxima SYBR Green qPCR Master Mix (ABI #4367659, USA). The primer sequences used were as follows: GAPDH (5′-[…]-3′, 5′-[…]-3′). INFP3 (5′-[…]-3′,5′-[…]-3′) Real-time PCR was performed on QuantStudio™ 5 Real-Time PCR System (Thermo Fisher). Relative expression levels of IFNβ gene were normalized against the level of GAPDH expression by the 2^−ΔΔCT method. Each PCR reaction was performed in triplicates.

| SMILES | Relative mRNA INFβ/GAPDH THP 1 |
| --- | --- |
| CC1COc2c(F)c(F)cc3c(=O)c(CN(Cc4ccncc4)[C@H]4CCCN(c5ccc(N)nc5)C4)cn1c23 (stereo partly drawn) [Compound 2, 6-((((S)-1-(6-aminopyridin-3-yl)piperidin-3-yl)(pyridin-4-ylmethyl)amino)methyl)-9,10-difluoro-3-methyl-2H-[1,4]oxazino[2,3,4-ij]quinolin-7(3H)-one] | 1261.9 |
| Cc1cc(CN(Cc2cn3c4c(c(F)c(F)cc4c2=O)OCC3C)[C@H]2CCCN(c3ccc(N)nc3)C2)ccn1 (stereo partly drawn) [Compound 3, 6-((((S)-1-(6-aminopyridin-3-yl)piperidin-3-yl)((2-methylpyridin-4-yl)methyl)amino)methyl)-9,10-difluoro-3-methyl-2H-[1,4]oxazino[2,3,4-ij]quinolin-7(3H)-one] | 1356.3 |
| COc1cc(CN(Cc2cn3c4c(c(F)c(F)cc4c2=O)OCC3C)[C@H]2CCCN(c3ccc(N)nc3)C2)c(Cl)cn1 (stereo partly drawn) [Compound 4, 6-((((S)-1-(6-aminopyridin-3-yl)piperidin-3-yl)((5-chloro-2-methoxypyridin-4-yl)methyl)amino)methyl)-9,10-difluoro-3-methyl-2H-[1,4]oxazino[2,3,4-ij]quinolin-7(3H)-one] | 587.4 |
| COc1cc(CN(Cc2cn3c4c(c(F)c(F)cc4c2=O)OC[C@H]3C)[C@H]2CCCN(c3ccc(N)nc3)C2)ccn1 [Compound 5, (R)-6-((((S)-1-(6-aminopyridin-3-yl)piperidin-3-yl)((2-methoxypyridin-4-yl)methyl)amino)methyl)-9,10-difluoro-3-methyl-2H-[1,4]oxazino[2,3,4-ij]quinolin-7(3H)-one] | 1627.5 |
| COc1cc(CN(Cc2cn3c4c(c(F)c(F)cc4c2=O)OC[C@@H]3C)[C@H]2CCCN(c3ccc(N)nc3)C2)ccn1 [Compound 6, (S)-6-((((S)-1-(6-aminopyridin-3-yl)piperidin-3-yl)((2-methoxypyridin-4-yl)methyl)amino)methyl)-9,10-difluoro-3-methyl-2H-[1,4]oxazino[2,3,4-ij]quinolin-7(3H)-one] | 1595.2 |
| COc1cc(CN(Cc2cn3c4c(c(F)c(F)cc4c2=O)OCC3C)[C@H]2CCCN(c3ccc(NC(C)=O)nc3)C2)ccn1 (stereo partly drawn) [Compound 7, N-(5-((3S)-3-(((9,10-difluoro-3-methyl-7-oxo-3,7-dihydro-2H-[1,4]oxazino[2,3,4-ij]quinolin-6-yl)methyl)((2-methoxypyridin-4-yl)methyl)amino)piperidin-1-yl)pyridin-2-yl)acetamide] | 65.3 |
| COc1cc(CCN(Cc2cn3c4c(c(F)c(F)cc4c2=O)OCC3C)[C@H]2CCCN(c3ccc(N)nc3)C2)ccn1 (stereo partly drawn) [Compound 8, 6-((((S)-1-(6-aminopyridin-3-yl)piperidin-3-yl)(2-(2-methoxypyridin-4-yl)ethyl)amino)methyl)-9,10-difluoro-3-methyl-2H-[1,4]oxazino[2,3,4-ij]quinolin-7(3H)-one] | 5.7 |
| Cc1ccc(N2CCC[C@H](N(Cc3ccnc(C)c3)Cc3cn4c5c(c(F)c(F)cc5c3=O)OCC4C)C2)cn1 (stereo partly drawn) [Compound 9, 9,10-difluoro-3-methyl-6-((((S)-1-(6-methylpyridin-3-yl)piperidin-3-yl)((2-methylpyridin-4-yl)methyl)amino)methyl)-2H-[1,4]oxazino[2,3,4-ij]quinolin-7(3H)-one] | 332.6 |
| Cc1cc(CN(Cc2cn3c4c(c(F)c(F)cc4c2=O)OCC3C)[C@H]2CCCN(c3cccnc3)C2)ccn1 (stereo partly drawn) [Compound 10, 9,10-difluoro-3-methyl-6-((((2-methylpyridin-4-yl)methyl)((S)-1-(pyridin-3-yl)piperidin-3-yl)amino)methyl)-2H-[1,4]oxazino[2,3,4-ij]quinolin-7(3H)-one] | 336.8 |
| Cc1ccc(N2CCC[C@H](N(Cc3ccnc(N)c3)Cc3cn4c5c(c(F)c(F)cc5c3=O)OCC4C)C2)cn1 (stereo partly drawn) [Compound 11, 6-((((2-aminopyridin-4-yl)methyl)((S)-1-(6-methylpyridin-3-yl)piperidin-3-yl)amino)methyl)-9,10-difluoro-3-methyl-2H-[1,4]oxazino[2,3,4-ij]quinolin-7(3H)-one] | 65.6 |
| Cc1cc(CN(Cc2cn3c4c(c(F)c(F)cc4c2=O)OCC3C)[C@H]2CCCN(c3ccc(C#N)nc3)C2)ccn1 (stereo partly drawn) [Compound 12, 5-((3S)-3-(((9,10-difluoro-3-methyl-7-oxo-3,7-dihydro-2H-[1,4]oxazino[2,3,4-ij]quinolin-6-yl)methyl)((2-methylpyridin-4-yl)methyl)amino)piperidin-1-yl)picolinonitrile] | 14.1 |
| Cc1cc(CN(Cc2cn3c4c(c(F)c(F)cc4c2=O)OCC3C)[C@H]2CCCN(c3ccc(C(N)=O)nc3)C2)ccn1 (stereo partly drawn) [Compound 13, 5-((3S)-3-(((9,10-difluoro-3-methyl-7-oxo-3,7-dihydro-2H-[1,4]oxazino[2,3,4-ij]quinolin-6-yl)methyl)((2-methylpyridin-4-yl)methyl)amino)piperidin-1-yl)picolinamide] | 3.6 |
| Cc1cc(CN(Cc2cn3c4c(c(F)c(F)cc4c2=O)OCC3C)[C@H]2CCCN(c3cnccn3)C2)ccn1 (stereo partly drawn) [Compound 14, 9,10-difluoro-3-methyl-6-((((2-methylpyridin-4-yl)methyl)((S)-1-(pyrazin-2-yl)piperidin-3-yl)amino)methyl)-2H-[1,4]oxazino[2,3,4-ij]quinolin-7(3H)-one] | 3848.9 |
| COc1cc(CN(Cc2cn3c4c(c(F)c(F)cc4c2=O)OCC3C)[C@H]2CCN(c3ccc(N)nc3)C2)ccn1 (stereo partly drawn) [Compound 15, 6-((((S)-1-(6-aminopyridin-3-yl)pyrrolidin-3-yl)((2-methoxypyridin-4-yl)methyl)amino)methyl)-9,10-difluoro-3-methyl-2H-[1,4]oxazino[2,3,4-ij]quinolin-7(3H)-one] | 5.8 |
| CNc1ccc(N2CCC[C@H](N(Cc3ccnc(OC)c3)Cc3cn4c5c(c(F)c(F)cc5c3=O)OCC4C)C2)cn1 (stereo partly drawn) [Compound 16, 9,10-difluoro-6-((((2-methoxypyridin-4-yl)methyl)((S)-1-(6-(methylamino)pyridin-3-yl)piperidin-3-yl)amino)methyl)-3-methyl-2H-[1,4]oxazino[2,3,4-ij]quinolin-7(3H)-one] | 114.6 |
| COc1cc(CN(Cc2cn3c4c(c(F)c(F)cc4c2=O)OCC3C)[C@H]2CCCN(c3ccc(N4CCCC4)nc3)C2)ccn1 (stereo partly drawn) [Compound 17, 9,10-difluoro-6-((((2-methoxypyridin-4-yl)methyl)((S)-1-(6-(pyrrolidin-1-yl)pyridin-3-yl)piperidin-3-yl)amino)methyl)-3-methyl-2H-[1,4]oxazino[2,3,4-ij]quinolin-7(3H)-one] | 6.7 |
| COc1cc(CN(Cc2cn3c4c(c(F)c(F)cc4c2=O)OCC3C)[C@H]2CCCN(c3ccc(N4CCCC4=O)nc3)C2)ccn1 (stereo partly drawn) [Compound 18, 9,10-difluoro-6-((((2-methoxypyridin-4-yl)methyl)((S)-1-(6-(2-oxopyrrolidin-1-yl)pyridin-3-yl)piperidin-3-yl)amino)methyl)-3-methyl-2H-[1,4]oxazino[2,3,4-ij]quinolin-7(3H)-one] | 4.8 |
| COc1cc(CN(Cc2cn3c4c(c(F)c(F)cc4c2=O)OCC3C)[C@H]2CCCN(c3ccc(N(C)C)nc3)C2)ccn1 (stereo partly drawn) [Compound 19, 11-[[[(3S)-1-[6-(dimethylamino)-3-pyridyl]-3-piperidyl]-[(2-methoxy-4-pyridyl)methyl]amino]methyl]-6,7-difluoro-2-methyl-4-oxa-1-azatricyclo[7.3.1.05,13]trideca-5(13),6,8,11-tetraen-10-one] | 2625.9 |
| COc1cc(CN(Cc2cn3c4c(c(F)c(F)cc4c2=O)OCC3C)[C@H]2CCCN(c3ccc(NCC4CC4)nc3)C2)ccn1 (stereo partly drawn) [Compound 20, 11-[[[(3S)-1-[6-(cyclopropylmethylamino)-3-pyridyl]-3-piperidyl]-[(2-methoxy-4-pyridyl)methyl]amino]methyl]-6,7-difluoro-2-methyl-4-oxa-1-azatricyclo[7.3.1.0^5,13]trideca-5(13),6,8,11-tetraen-10-one] | 2142.1 |
| COc1cc(CN(Cc2cn3c4c(c(F)c(F)cc4c2=O)OCC3C)[C@H]2CCCN(c3ccc(N(C)C4CC4)nc3)C2)ccn1 (stereo partly drawn) [Compound 21, 11-[[[(3S)-1-[6-[cyclopropyl(methyl)amino]-3-pyridyl]-3-piperidyl]-[(2-methoxy-4-pyridyl)methyl]amino]methyl]-6,7-difluoro-2-methyl-4-oxa-1-azatricyclo[7.3.1.0^5,13]trideca-5(13),6,8,11-tetraen-10-one] | 114.6 |
| COc1cc(CN(Cc2cn3c4c(c(F)c(F)cc4c2=O)OCC3C)[C@H]2CCCN(c3cccnc3)C2)ccn1 (stereo partly drawn) [Compound 22, 9,10-difluoro-6-((((2-methoxypyridin-4-yl)methyl)((S)-1-(pyridin-3-yl)piperidin-3-yl)amino)methyl)-3-methyl-2H-[1,4]oxazino[2,3,4-ij]quinolin-7(3H)-one] | 6463.9 |
